According to patent US20190330597A1, “COMPOSITION FOR CULTURE OF PLURIPOTENT STEM CELLS” (The Francis Crick Institute Limited, priority 2017, published 2019):

What was measured:
[1] = tested on: hES cells; assay: hES cells cultured in AI medium with inhibitors of FGF receptors, MEK/ERK or Activin/Nodal (TGFβ) signaling; assay type: cell-based, human; conditions: for morphology / survival of hES cells in AI medium with inhibitor: 100 nM PD173074, 1 μM PD0325901 or 10 μM SB-431542, vs DMSO control; for morphology / survival of hES cells in AI medium with inhibitor / expression of pluripotency proteins OCT4 and NANOG (immunofluorescence): 72 hours; for expression of pluripotency proteins OCT4 and NANOG (immunofluorescence): 100 nM PD173074 or 1 μM PD0325901
Description: For culture in AI media, cells were maintained on plates coated with 0.5 μg/cm^2 Laminin-511 (Biolamina, Takara), and generally passaged with ReLeSR, similar to cells in mTeSR™1 on Laminin. Early passage newly-derived hES cells in AI medium were passaged by manual picking. Cells in AI media were also split using various dissociation reagents, as indicated in the Examples. For Accutase or AccuMax (StemCell Technologies), the dissociation reagent was added to wells for 5-10 minutes, the well contents were collected and pelleted, and the dissociation reagent removed. Cells were then resuspended in AI media with or without […] ROCK inhibitor for plating. For Gentle Cell Dissociation Reagent (StemCell Technologies), the reagent was added to wells for 6 minutes, then aspirated and AI medium added. Well contents were collected and disaggregated with a 5 ml stripette. For 0.5 mM EDTA (Sigma), the reagent was added for 5 minutes, then aspirated, and AI medium added and cells disaggregated. For salt-free PBS (Gibco, Life Technologies), the reagent was added for 6 minutes, aspirated, then AI medium added and cells disaggregated.
For inhibitor treatment experiments, cell culture media was supplemented with 100 nM PD173074 (FGF receptor inhibitor), 1 μM PD0325901 (MEK inhibitor) or 10 μM SB-431542 (Activin/Nodal receptor inhibitor) as indicated in the Examples. Cells were exposed to inhibitors for 72 hours.
On the day of fixation, medium was removed from pluripotent cell lines or differentiated cells and the cells were washed with Dulbeco's Phosphate-Buffer saline (PBS) without calcium and magnesium (Thermo Fisher Scientific). Cells were fixed with 4% (w/v) paraformaldehyde (PFA) (ThermoFisher Scientific) for 1 h and permeabilised with 0.5% (w/v) Triton X-100 or 0.5% (v/v) Tween-20 (Sigma Aldrich). Non-specific binding was minimised using 2-10% (v/v) donkey serum (AbCam) in PBS (containing 0.05% (v/v) Tween-20 or 0.01% Tween-20). The following primary antibodies were used (all at 1:500 dilution unless otherwise indicated): anti-NANOG (AF1997 R&D Systems; REC-RCAB0001P, 2B Scientific; 4903P, Cell Signaling Technologies or ab21624, Abcam), anti-SOX17 (AF1924, R&D Systems), anti-TRA-1-81 (MAB4381, Millipore; or 560072, BD Biosciences), anti-TUJ1 (T2200, Sigma), anti-FOXA2 (3143, Cell Signaling), anti-OCT4 (sc-5279, Santa Cruz or 2750S, Cell Signaling Technologies), anti-SSEA4 (MA1-021, Life Technologies or MC-813-70, DSHB, 1:100), anti-TRA-1-60 (MAB4360, Millipore, 1:100), anti-CXCR4 (MAB173, R&D), anti-Desmin (RB-9014-R7, Neomarkers, 1:50), anti-AFP (A0008, Dako), anti-cytokeratin-18 (ab668, Abcam). Primary antibody was removed by washing with PBS (containing 0.05% or 0.01% v/v Tween-20). Secondary antibodies (Alexa Fluor® 488, Alexa Fluor® 594, Alexa Fluor® 555 donkey anti-rabbit, mouse or goat, Molecular Probes) were diluted in blocking solution at a 1:300 concentration and added to the corresponding wells for 1 hour at room temperature. Cells were the washed several times in of 0.1% (v/v) Tween-20 and placed in a last wash for 30 minutes. A drop of Vectashield containing DAPI (Vector Labs) was added to each well prior to imaging.

[2] = tested on: human embryos; assay: Human embryo culture with growth factor treatment, immunofluorescence and automated quantification; assay type: cell-based
Description: Human embryos were donated to the research project by informed consent under the UK Human Fertilisation and […] Licence number R0162. Vitrified embryos frozen in straws were thawed by quickly transferring the contents of the straw from liquid nitrogen directly into thaw solution (Irvine Scientific Vitrification Thaw Kit) and thawed as per manufacturer's instructions. Embryos frozen in cryopets were first thawed for 3 seconds in a 37° C. waterbath before transferring into thaw solution (Irvine Scientific Vitrification Thaw Kit). Embryos frozen in glass ampoules were thawed completely in a 37° C. waterbath after the top of the vial was removed under liquid nitrogen. The contents were emptied onto a petri dish and the embryo transferred through a gradient of sucrose solutions (Quinn's Advantage Thaw Kit, Origio) as per manufacturer's instructions.
Embryos were routinely cultured in Global Media (LifeGlobal) supplemented with 5 mg/mL LifeGlobal Protein Supplement pre-equilibrated in an incubator at 37° C. and 5% CO2. For growth factor or inhibitor treatment, these conditions were further supplemented with FGF2 (3718-FB-01M, R&D) or IGF1 (291-G1-10, R&D) as indicated.
Embryos were fixed with 4% (w/v) paraformaldehyde (PFA) (ThermoFisher Scientific) for 1 h at 4° C. on a rotating shaker and analysed as described previously (Niakan and Eggan, Developmental Biology, 2013: doi: 10.1016/j.ydbio.2012.12.008). Briefly, embryos were then transferred through several washes of 0.1% (v/v) Tween-20 (Sigma Aldrich) diluted in Dulbeco's Phosphate-Buffer saline (PBS) without calcium and magnesium (Thermo Fisher Scientific) to remove residual paraformaldehyde. Embryos were placed for 20 minutes in 0.5% (v/v) Tween-20 for permeabilization. Embryos were blocked for 1 hour at room temperature in blocking solution (10% donkey serum diluted in 0.1% (v/v) Tween-20). Embryos were placed in primary antibodies at a concentration of 1:500 in blocking solution overnight at 4° C. on a rotating shaker. The following primary antibodies were used (all at 1:500 dilution): anti-NANOG (AF1997 R&D Systems, REC-RCAB0001P 2B Scientific, or ab21624, Abcam), anti-GATA6 (SC-9055, Santa Cruz) and anti-SOX17 (AF1924, R & D Systems). The following day, embryos were transferred through 4 washes of 0.1% (v/v) Tween-20 then placed in a last wash for 30 minutes. Secondary antibodies (Cy3, FITC or Cy5 donkey anti-rabbit, mouse or goat, Molecular Probes) were diluted in blocking solution at a 1:300 concentration. Embryos were placed in secondary antibody for 1 hour at room temperature on a rotating shaker, transferred through 4 washes of 0.1% (v/v) Tween-20 and placed in a last wash for 30 minutes. Embryos were placed in a 50 μL 1:3 dilution of Vectashield containing DAPI (Vector Labs): 0.1% (v/v) Tween-20 on a coverslip bottom dish (MatTek) for confocal imaging.
Embryos were imaged on a Leica SP5 inverted confocal microscope (Leica Microsystems GmbH) at a z-section thickness of 3 μm or 2 μm for human or mouse embryos respectively. MINS 1.3 software was used to detect and segment nuclei and thus determine the number of cells in each embryo (http://katlab-tools.org/) (Lou et al., Stem Cell Reports 2014, doi: 10.1016/j.stemcr.2014.01.010). Confocal stacks in .tif format were loaded into the MINS pipeline for automated nuclear segmentation.
The MINS segmentation output was manually checked for appropriate segmentation and mitotic nuclei were removed from the analysis. Data were subsequently plotted using GraphPad Prism version 6 (GraphPad Software, La Jolla, Calif.).

[3] = tested on: H9 cells; assay: Test of laminin variants as basement membrane substrate for H9 cells in mTeSR1; assay type: cell-based, human; conditions: 0.5 μg/cm^2 coating, mTeSR1 media, 3 days, vs Matrigel
Source text: We therefore interrogated the transcriptome data set to identify chemically defined and physiologically relevant substrates for the derivation of hES and iPS cells. We also interrogated the transcriptome data set and identified expression of transcripts for laminin-binding Integrin α6 and Integrin-β1 (ITGA6, ITGB1) in the human blastocyst, as shown in FIG. 3A. […] Consequently, recombinant human Laminin-511 (Biolamina) or a recombinant Laminin-511 E8 fragment (iMatrix-511, Takara) were selected as basement membrane substrates to culture hES cells, in order to recapitulate the niche within the blastocyst. To test the laminin variants, H9 cells in mTeSR™1 media were passaged onto plates coated with 0.5 μg/cm^2 of either iMatrix-511 (Takara) or LN-511 (Biolamina), as well as a control Matrigel plate, and cultured for 3 days.
For culture in mTeSR™1 media (StemCell Technologies), cells were generally maintained on Matrigel-coated (BD Biosciences) tissue culture plates. Matrigel coating was performed for one hour at room temperature (RT) as per the manufacturer's instructions Cells were passaged as clumps using ReLeSR (Stemcell Technologies). ReLeSR was added to wells for 30 seconds at RT then aspirated, then plates were incubated for 5 minutes at 37° C., quenched with mTeSR™1 and lightly tapped to dislodge clumps of the desired size. […]

CCN(CC)CCCCNc1ncc2cc(-c3cc(OC)cc(OC)c3)c(NC(=O)NC(C)(C)C)nc2n1 [FGF receptor inhibitor, PD173074]
morphology / survival of hES cells in AI medium with inhibitor [1]: retained the morphology of pluripotent cells | expression of pluripotency proteins OCT4 and NANOG (immunofluorescence) [1]: retained the expression

IGF1
increase in the proportion of NANOG expressing cells compared to control embryos ([2]; 17 nM IGF1 from E2.5, analysed at E6-7, p-value<0.05): 2 fold | KLF17 (epiblast marker) expression ([2]; human embryos treated with IGF1): expressed in a higher proportion of cells

Laminin-511: recombinant human Laminin-511 (Biolamina)
pluripotency morphology of H9 cells on substrate [3]: equivalent to Matrigel coating

O=C(NOC[C@H](O)CO)c1ccc(F)c(F)c1Nc1ccc(I)cc1F [MEK/ERK inhibitor, PD0325901]
morphology / survival of hES cells in AI medium with inhibitor [1]: retained the morphology of pluripotent cells | expression of pluripotency proteins OCT4 and NANOG (immunofluorescence) [1]: retained the expression

FGF2
GATA6 (extraembryonic marker) expression ([2]; 100 ng/ml FGF2 from E2.5): still expressed | NANOG expression compared to untreated controls (immunofluorescence) ([2]; 100 ng/ml FGF2 from E2.5, analysed at E6-7): loss of NANOG expression | NANOG expression ([2]; 100 ng/ml FGF2 from E5 to E6-7): remained expressed | SOX17 (extraembryonic marker) expression ([2]; 100 ng/ml FGF2 from E5 to E6-7): remained expressed | GATA6 (extraembryonic marker) expression ([2]; 1 μg/ml FGF2 from E2.5): still expressed | NANOG expression compared to untreated controls (immunofluorescence) ([2]; 1 μg/ml FGF2 from E2.5, analysed at E6-7): loss of NANOG expression

NC(=O)c1ccc(-c2nc(-c3ccc4c(c3)OCO4)c(-c3ccccn3)[nH]2)cc1 [TGFβ inhibitor, SB-431542]
morphology / survival of hES cells in AI medium with inhibitor [1]: underwent apoptosis | NANOG expression in remaining colonies (immunofluorescence) ([1]; 10 μM SB-431542, 3 days): undetectable in the majority of cells
